# Key:
# Format in all cases: cell-based, human
# [1] = test system: cellular CK2 in ARPE19 cells; assay: cellular CK2 activity after treatment of cells (in vitro phosphorylation assay of cell extracts); conditions: for cellular CK2 activity reduced to: control = 100%
# Method: (§1) Figure 4 Expression of CK2 in prostate cancer cell line LNCaP and non-neoplastic retinal pigment epithelial cell line ARPE19 and inhibition of intracellular activity by dibenzofurans. (A) Cells were extracted with RIPA buffer. 50 μg cell extract was separated on a 12.5% SDS polyacrylamide gel and transferred to a PVDF membrane followed by Western blotting with anti-CK2α (1A5), anti-CK2α’ (#30), anti-CK2α (6D5) and anti-GAPDH antibodies. GAPDH was used as a loading control. (B) ARPE19 or LNCaP cells were treated with DMSO as control (0 μM) or with 25 or 50 μM 4b, 4a or 5 for 24 or 48 h. Kinase activity of CK2 in the cell extracts was measured with the synthetic CK2 specific peptide substrate, […], in the presence of [[^32P]γATP. Results from at least three individual experiments are shown; the activity in the control cells was set to 100%.
# (§2) ARPE19 and LNCaP cells were treated with 0, 25 or 50 µM of the different dibenzofuran derivatives 4b, 4a and 5 for 24 and 48 h before being harvested. Proteins were extracted and CK2 kinase activity was measured by an in vitro phosphorylation assay using the CK2 specific peptide substrate […] and radiolabeled [[^32P]γATP. The activity as measured was normalized to equal protein amounts. The relative CK2 activity of at least three independent experiments is given as bar graphs in Figure 4B. In ARPE19 cells CK2 activity was strongly repressed by all inhibitors. […] For 5 a weaker but dose-dependant effect was observed. 25 µM reduced the cellular CK2 activity to 80% and with 50 µM the activity was reduced to 40%. In LNCaP cells the results were essentially similar to those made in ARPE19 cells. However, the repression of activity by 4b and 4a was not as strong as in ARPE19 cells. 4b reduced the activity to 50%, 4a to 40%. The outcome using 5 was quite similar to the effects observed in ARPE19 cells: a reduction to roughly 80% when using 25 µM, which was enhanced to 40% when using 50 µM. This also indicated cell penetration of compounds 4a, 4b, and 5. A more direct evidence for intracellular inhibition of CK2 could be obtained by measuring the phosphorylation of endogenous natural substrates (biomarker analysis). […] With respect to their results and taking into consideration that the logP values of compounds 4a, 4b, and 5 as given in Table 2 are not of substantial difference, we conclude that the inhibitors were able to cross the cell membrane and exerted a similar inhibitory effect on intracellular CK2 activity in both cell lines.
# (§3) ARPE19 cells (ATCC Number: CRL-2302), retinal pigment epithelia (RPE) cells, were maintained at 37 °C and 5% CO2 in Dulbecco’s modified Eagles medium (DMEM) supplemented with 2 mM L-glutamine, 1 mM gentamicin and 10% fetal calf serum (FCS) at 37 °C in an atmosphere enriched with 5% CO2. The hormone-sensitive prostate cancer cell line LNCaP (ATCC: CRL-1740, passage number 30–40) was cultured in RPMI1640 (Sigma-Aldrich Chemie GmbH, Munich, Germany) supplemented with 10% fetal bovine serum and 2 mM L-glutamine at 37 °C in an atmosphere enriched with 5% CO2. 4b, 4a and 5 were dissolved in DMSO as a 10 mM stock solution and cells were treated in the concentrations and times as indicated. Pure DMSO was applied as control. For the evaluation of cell morphology ARPE19 and LNCaP cells were analysed with bright field microscopy using a Axiovert microscope from Zeiss (Jena, Germany).
# (§4) For harvesting cells—including floating cells—were scraped off the plate with a rubber policeman and sedimented by centrifugation (7 min, 4 °C, 400× g). Cells were washed with cold phosphate buffered saline (PBS) and the cell pellet was lysed with the double volume of RIPA buffer (50 mM Tris/HCl, pH 8.0, 150 mM NaCl, 0.5% sodium desoxycholate, 1% Triton X-100, 0.1% sodium dodecylsulfate) supplemented with the protease inhibitor cocktail completeTM (Roche Diagnostics GmbH, Mannheim, Germany). […]
# [2] = test system: cellular CK2 in LNCaP cells; assay: as above; conditions: control = 100%
# Method: as §1, §2, §3, §4
# ARPE19 cells = assay: MTT viability assay; conditions: 24 h; for cell viability reduced to: ARPE19, 50 µM (highest concentration), DMSO as reference
# Method: Protein kinase CK2 is essential for the survival of cells. Therefore, we tested the impact of the CK2 inhibitors on the viability of cells in both lines. The inhibitors were applied in increasing concentrations up to 50 µM to growing cell cultures and the viability was analyzed by a MTT assay after 24 h of treatment. The effect of the compounds on the growth of the normal ARPE19 cells was rather moderate (Figure 5A). 5 had no impact on ARPE19 cell viability. 4b reduced the viability to 70% in its highest concentration and 4a exerted the strongest influence by reducing the ratio of viable cells to 40% when applying a 50 µM dose. In contrast LNCaP cells were strongly impaired by the treatment with the dibenzofurans (Figure 5B): Using 10 µM of the different inhibitors, we only observed an effect with 4b. However, increasing the concentration to 20, 25 and 50 µM exerted a drastic impact on the viability of LNCaP cells. With 50 µM 4b a viability rate of final 5% was obtained, whereas 4a and 5 reduced the viability to 30 to 35%. Thus, the inhibitors in particular affected the viability of LNCaP carcinoma cells, but not of normal retinal pigment epithelium cells. […] Even after 48 h of growth under CK2 inhibition ARPE19 cells appeared rather unaffected by the treatment. […]
# Figure 5 Effects of dibenzofuran inhibitors on cell viability. […] Cell viability was determined using the MTT assay after 24 h of incubation. […]
# ARPE19 cells (ATCC Number: CRL-2302), retinal pigment epithelia (RPE) cells, were maintained at 37 °C and 5% CO2 in Dulbecco’s modified Eagles medium (DMEM) supplemented with 2 mM L-glutamine, 1 mM gentamicin and 10% fetal calf serum (FCS) at 37 °C in an atmosphere enriched with 5% CO2. […] For the evaluation of cell morphology ARPE19 and LNCaP cells were analysed with bright field microscopy using a Axiovert microscope from Zeiss (Jena, Germany).
# Cell proliferation and viability was determined using a colorimetric MTT-based assay (MTT: 3-[4,5-dimethylthiazol-2-yl]-2,5-diphenyl tetrazolium bromide, Sigma-Aldrich, Deisenhofen, Germany) as described in [72]. […]
# [3] = 25 or 50 µM, 24 or 48 h (not specified)
Structure (SMILES),"inhibition of cellular CK2 activity ([1]; ARPE19, 25 or 50 µM, 24 or 48 h, independent of concentration and time)","cellular CK2 activity reduced to [2, 3]",cell viability reduced to (ARPE19 cells),"cellular CK2 activity reduced to ([1]; ARPE19, 25 µM)","cellular CK2 activity reduced to ([1]; ARPE19, 50 µM)",cellular CK2 activity reduced to ([2]; 25 µM),cellular CK2 activity reduced to ([2]; 50 µM),"impact on cell viability (ARPE19 cells; ARPE19, up to 50 µM)","inhibition of cellular CK2 activity ([1]; ARPE19, 25 µM for 24 h)"
"Cc1ccc(NC=C2C(=O)CCc3c2oc2c(Cl)c(Cl)c(O)cc32)cc1 [4b, 6,7-dichloro-1,4-dihydro-8-hydroxy-4-[(4-methylphenylamino)methylene]dibenzo[b,d]furan-3(2H)-one]",60%,50%,70%,–,–,–,–,–,–
"COc1ccc(/N=C/c2c(O)ccc3c2oc2cc(Cl)c(O)c(Cl)c23)cc1 [compound 5, (E)-1,3-dichloro-6-[(4-methoxyphenylimino)methyl]dibenzo[b,d]furan-2,7-diol]",–,–,–,80%,40%,roughly 80%,40%,no impact,–
"COc1ccc(N/C=C2\C(=O)CCc3c2oc2cc(Cl)c(O)c(Cl)c32)cc1 [4a, 7,9-dichloro-1,2-dihydro-8-hydroxy-4-[(4-methoxyphenylamino)methylene]dibenzo[b,d]furan-3(2H)-one]",–,40%,40%,–,–,–,–,–,80%
